# Data: ChEMBL document CHEMBL2413072, “Synthesis and in vitro anticancer studies of novel C-2 arylidene congeners of lantadenes” (2013)
# Tests used:
# Format in all cases: functional
# NCI-H322M = test: Growth inhibition of human NCI-H322M cells assessed as cell growth at 10 uM by sulforhodamine B assay; settings: read-out: Activity
# HOP-62 = test: Growth inhibition of human HOP62 cells assessed as growth inhibition at 10 uM by sulforhodamine B assay; settings: read-out: GI
# NCI-H23 = test: Growth inhibition of human NCI-H23 cells assessed as cell growth at 10 uM by sulforhodamine B assay; settings: read-out: Activity
# [1] = Growth inhibition of human Hs 578T cells assessed as cell growth at 10 uM by sulforhodamine B assay; settings: read-out: Activity
# HCT-15 = test: Growth inhibition of human HCT15 cells assessed as cell growth at 10 uM by sulforhodamine B assay; settings: read-out: Activity
# U-251 [2] = test: Growth inhibition of human U251 cells assessed as cell growth at 10 uM by sulforhodamine B assay; settings: read-out: Activity
# OVCAR-5 = test: Growth inhibition of human OVCAR5 cells assessed as cell growth at 10 uM by sulforhodamine B assay; settings: read-out: Activity
# SF-539 = test: Growth inhibition of human SF539 cells assessed as growth inhibition at 10 uM by sulforhodamine B assay; settings: read-out: GI
# MCF7 = test: Growth inhibition of human MCF7 cells assessed as cell growth at 10 uM by sulforhodamine B assay; settings: read-out: Activity
# MDA-MB-468 [3] = test: Growth inhibition of human MDA-MB-468 cells assessed as growth inhibition at 10 uM by sulforhodamine B assay; settings: read-out: GI
# UO-31 = test: Growth inhibition of human UO31 cells assessed as growth inhibition at 10 uM by sulforhodamine B assay; settings: read-out: GI
# TK-10 = test: Growth inhibition of human TK10 cells assessed as cell growth at 10 uM by sulforhodamine B assay; settings: read-out: Activity
# COLO 205 = test: Growth inhibition of human COLO205 cells assessed as cell growth at 10 uM by sulforhodamine B assay; settings: read-out: Activity
# BT-549 = test: Growth inhibition of human BT549 cells assessed as cell growth at 10 uM by sulforhodamine B assay; settings: read-out: Activity
# SK-MEL-28 [4] = test: Growth inhibition of human SK-MEL-28 cells assessed as cell growth at 10 uM by sulforhodamine B assay; settings: read-out: Activity
# U-251 [5] = test: Growth inhibition of human U251 cells assessed as growth inhibition at 10 uM by sulforhodamine B assay; settings: read-out: GI
# SN12C [6] = test: Growth inhibition of human SN12C cells assessed as cell growth at 10 uM by sulforhodamine B assay; settings: read-out: Activity
# MDA-MB-468 [7] = test: Growth inhibition of human MDA-MB-468 cells assessed as cell growth at 10 uM by sulforhodamine B assay; settings: read-out: Activity
# SK-MEL-2 = test: Growth inhibition of human SK-MEL-2 cells assessed as cell growth at 10 uM by sulforhodamine B assay; settings: read-out: Activity
# CAKI-1 [8] = test: Growth inhibition of human CAKI-1 cells assessed as growth inhibition at 10 uM by sulforhodamine B assay; settings: read-out: GI
# DU-145 [9] = test: Growth inhibition of human DU145 cells assessed as growth inhibition at 10 uM by sulforhodamine B assay; settings: read-out: GI
# SK-OV-3 [10] = test: Growth inhibition of human SKOV3 cells assessed as cell growth at 10 uM by sulforhodamine B assay; settings: read-out: Activity
# KM12 = test: Growth inhibition of human KM12 cells assessed as growth inhibition at 10 uM by sulforhodamine B assay; settings: read-out: GI
# SF-295 = test: Growth inhibition of human SF295 cells assessed as growth inhibition at 10 uM by sulforhodamine B assay; settings: read-out: GI
# ACHN = test: Growth inhibition of human ACHN cells assessed as growth inhibition at 10 uM by sulforhodamine B assay; settings: read-out: GI
# SNB-19 = test: Growth inhibition of human SNB19 cells assessed as growth inhibition at 10 uM by sulforhodamine B assay; settings: read-out: GI
# MDA-MB-231 = test: Growth inhibition of human MDA-MB-231 cells assessed as growth inhibition at 10 uM by sulforhodamine B assay; settings: read-out: GI
# NCI-H522 [11] = test: Growth inhibition of human NCI-H522 cells assessed as cell growth at 10 uM by sulforhodamine B assay; settings: read-out: Activity
# HCT-116 = test: Growth inhibition of human HCT116 cells assessed as growth inhibition at 10 uM by sulforhodamine B assay; settings: read-out: GI
# SW-620 = test: Growth inhibition of human SW620 cells assessed as cell growth at 10 uM by sulforhodamine B assay; settings: read-out: Activity
# NCI-H522 [12] = test: Growth inhibition of human NCI-H522 cells assessed as growth inhibition at 10 uM by sulforhodamine B assay; settings: read-out: GI
# CAKI-1 [13] = test: Growth inhibition of human CAKI-1 cells assessed as cell growth at 10 uM by sulforhodamine B assay; settings: read-out: Activity
# DU-145 [14] = test: Growth inhibition of human DU145 cells assessed as cell growth at 10 uM by sulforhodamine B assay; settings: read-out: Activity
# SN12C [15] = test: Growth inhibition of human SN12C cells assessed as growth inhibition at 10 uM by sulforhodamine B assay; settings: read-out: GI
# T47D = test: Growth inhibition of human T47D cells assessed as cell growth at 10 uM by sulforhodamine B assay; settings: read-out: Activity
# NCI-H226 = test: Growth inhibition of human NCI-H226 cells assessed as cell growth at 10 uM by sulforhodamine B assay; settings: read-out: Activity
# CCRF-CEM = test: Growth inhibition of human CCRF-CEM cells assessed as cell growth at 10 uM by sulforhodamine B assay; settings: read-out: Activity
# UACC-257 = test: Growth inhibition of human UACC257 cells assessed as cell growth at 10 uM by sulforhodamine B assay; settings: read-out: Activity
# HL-60(TB) = test: Growth inhibition of human HL-60(TB) cells assessed as cell growth at 10 uM by sulforhodamine B assay; settings: read-out: Activity
# 786-0 = test: Growth inhibition of human 786-0 cells assessed as growth inhibition at 10 uM by sulforhodamine B assay; settings: read-out: GI
# A498 = test: Growth inhibition of human A498 cells assessed as growth inhibition at 10 uM by sulforhodamine B assay; settings: read-out: GI
# [16] = Growth inhibition of human NCI-ADR-RES cells assessed as growth inhibition at 10 uM by sulforhodamine B assay; settings: read-out: GI
# SK-MEL-28 [17] = test: Growth inhibition of human SK-MEL-28 cells assessed as growth inhibition at 10 uM by sulforhodamine B assay; settings: read-out: GI
# SK-OV-3 [18] = test: Growth inhibition of human SKOV3 cells assessed as growth inhibition at 10 uM by sulforhodamine B assay; settings: read-out: GI
# MDA-MB-435 = test: Growth inhibition of human MDA-MB-435 cells assessed as growth inhibition at 10 uM by sulforhodamine B assay; settings: read-out: GI
# A549 [19] = test: Growth inhibition of human A549/ATCC cells assessed as growth inhibition at 10 uM by sulforhodamine B assay; settings: read-out: GI
# A549 [20] = test: Growth inhibition of human A549/ATCC cells assessed as cell growth at 10 uM by sulforhodamine B assay; settings: read-out: Activity
# MOLT-4 = test: Growth inhibition of human MOLT4 cells assessed as growth inhibition at 10 uM by sulforhodamine B assay; settings: read-out: GI
# SF-268 = test: Growth inhibition of human SF268 cells assessed as growth inhibition at 10 uM by sulforhodamine B assay; settings: read-out: GI
smiles,measurement,setting,value
COc1cc(/C=C2\C[C@]3(C)[C@H]4CC=C5[C@@H]6CC(C)(C)C[C@@H](O)[C@]6(C(=O)O)CC[C@@]5(C)[C@]4(C)CC[C@H]3C(C)(C)C2=O)ccc1O,growth at 10 µM,NCI-H322M,97.5%
same,inhibition of growth at 10 µM,HOP-62,< 10%
same,growth at 10 µM,NCI-H23,85%
same,growth at 10 µM,[1],94%
same,growth at 10 µM,HCT-15,76.5%
same,growth at 10 µM,U-251 [2],84.7%
same,growth at 10 µM,OVCAR-5,105%
same,inhibition of growth at 10 µM,SF-539,< 10%
same,growth at 10 µM,MCF7,77.5%
same,inhibition of growth at 10 µM,MDA-MB-468 [3],< 10%
same,inhibition of growth at 10 µM,UO-31,24.1%
same,growth at 10 µM,TK-10,116%
same,growth at 10 µM,COLO 205,94.8%
same,growth at 10 µM,BT-549,106%
same,growth at 10 µM,SK-MEL-28 [4],90.6%
same,inhibition of growth at 10 µM,U-251 [5],15.3%
same,growth at 10 µM,SN12C [6],87.5%
same,growth at 10 µM,MDA-MB-468 [7],103%
same,growth at 10 µM,SK-MEL-2,100%
same,inhibition of growth at 10 µM,CAKI-1 [8],21.2%
same,inhibition of growth at 10 µM,DU-145 [9],< 10%
same,growth at 10 µM,SK-OV-3 [10],99.2%
same,inhibition of growth at 10 µM,KM12,16%
same,inhibition of growth at 10 µM,SF-295,23.5%
same,inhibition of growth at 10 µM,ACHN,14.4%
same,inhibition of growth at 10 µM,SNB-19,< 10%
same,inhibition of growth at 10 µM,MDA-MB-231,< 10%
same,growth at 10 µM,NCI-H522 [11],80.8%
same,inhibition of growth at 10 µM,HCT-116,15.2%
same,growth at 10 µM,SW-620,108%
same,inhibition of growth at 10 µM,NCI-H522 [12],19.2%
same,growth at 10 µM,CAKI-1 [13],78.8%
same,growth at 10 µM,DU-145 [14],107%
same,inhibition of growth at 10 µM,SN12C [15],12.5%
same,growth at 10 µM,T47D,81.1%
same,growth at 10 µM,NCI-H226,100%
same,growth at 10 µM,CCRF-CEM,82%
same,growth at 10 µM,UACC-257,91.4%
same,growth at 10 µM,HL-60(TB),71.1%
same,inhibition of growth at 10 µM,786-0,< 10%
same,inhibition of growth at 10 µM,A498,< 10%
same,inhibition of growth at 10 µM,[16],< 10%
same,inhibition of growth at 10 µM,SK-MEL-28 [17],< 10%
same,inhibition of growth at 10 µM,SK-OV-3 [18],< 10%
same,inhibition of growth at 10 µM,MDA-MB-435,< 10%
same,inhibition of growth at 10 µM,A549 [19],28.2%
same,growth at 10 µM,A549 [20],71.8%
same,inhibition of growth at 10 µM,MOLT-4,36.7%
same,inhibition of growth at 10 µM,SF-268,< 10%
